From patent US20240336574A1 (LATIGO BIOTHERAPEUTICS, INC., priority 2021, published 2024)
Like-named read-outs stand apart in the source and are kept apart here.

Target: T1, recombinant human NaV1.8 stably transfected HEK cells (Homo sapiens, UniProt Q9Y5Y9)
T1 construct: expressed in transfected cells; host or cells: HEK cells, stably transfected
Assay: Compound profiling on NaV1.8, human NaV1.8 cell line, SyncroPatch384PE automated patch clamp assay (Example 115, third set of compounds, Table 27)
Format: cell-based
Details: human NaV1.8 HEK cells, Table 27 (third set of compounds)
Experimental: Compound Profiling on NaV1.8 Human NaV1.8 Cell Line SyncroPatch384PE Assay
Compounds were tested on recombinant human NaV1.8 stably transfected HEK cells using the SyncroPatch384PE system, an automated patch clamp device. Cells were cultured at 37° C./5% CO2 in DMEM medium supplemented with GlutaMAX I, NEAA 1%, FBS 10% and seeded in T175 flasks. Cells were cultured at 30° C. one day prior to recording sodium currents. On the day of the recordings, cells were detached with 0.05% Trypsin-EDTA, resuspended in serum free DMEM medium and placed into the SyncroPatch384PE 6° C. pre-cooled cell hotel and shaken at 200 rpm. Intracellular solution (IC) contained, in mM: 10, CsCl; 110, CsF; 20, EGTA; 10, HEPES. Extracellular solution (EC) contained, in mM: 140, NaCl; 4, KCl; 5, Glucose; 10, HEPES; 2, CaCl2; 1, MgCl2. Washing solution contained, in mM: 40, NMDG; 100, NaCl; 4, KCl; 10, Glucose; 10, HEPES; 5, CaCl2; 1, MgCl2.
Compounds were tested in quadruplicates in 0.1% DMSO and 0.030% Pluronic Acid. Compounds were diluted 1:3.33 in EC solution to create a 10-point concentration response curve, spanning a final concentration range from 10-0.0002 μM in the assay plate. Compounds with low nM potency were retested using a lower concentration range (1-0.00002 μM). Each plate contained tetracaine and another tool compound as positive controls. Up to 7 compounds were tested on one plate. 150 μM tetracaine and 0.1% DMSO were used as high and low controls, respectively.
Whole cell patch clamp recordings were conducted according to Nanion's standard procedure for SyncroPatch384PE®. Cells were held at a holding potential of −120 mV. A depolarization step to 10 mV for 30 ms was applied (P1 measurement), followed by a hyperpolarization step to −100 mV for 100 ms. An inactivation step at −40 mV for 10 sec was applied before stepping to −100 mV for 20 ms, followed by a step to 10 mV for 30 ms (P2 measurement) and then back to −100 mV for 30 ms. Sweep interval was 15 sec with a sampling rate of 10 kHz. Following establishment of the whole-cell configuration in EC, two washing steps with reference buffer were performed to stabilize the baseline. Compounds were then applied by the SynchroPatch into each well and the current was recorded for five minutes in EC, followed by application of tetracaine to achieve full block at the end of the experiment. The potency of the compounds was assessed on two read-outs, resting state block (P1 measurement) or inactivated state block (P2 measurement) to obtain IC50 values. Values were normalized to high (tetracaine) and low (DMSO) controls.

[1] = inactivated state block (P2 measurement), read-out: P2 IC50
[2] = resting state block (P1 measurement), read-out: P1 IC50

T1 sequence (Q9Y5Y9 whole entry): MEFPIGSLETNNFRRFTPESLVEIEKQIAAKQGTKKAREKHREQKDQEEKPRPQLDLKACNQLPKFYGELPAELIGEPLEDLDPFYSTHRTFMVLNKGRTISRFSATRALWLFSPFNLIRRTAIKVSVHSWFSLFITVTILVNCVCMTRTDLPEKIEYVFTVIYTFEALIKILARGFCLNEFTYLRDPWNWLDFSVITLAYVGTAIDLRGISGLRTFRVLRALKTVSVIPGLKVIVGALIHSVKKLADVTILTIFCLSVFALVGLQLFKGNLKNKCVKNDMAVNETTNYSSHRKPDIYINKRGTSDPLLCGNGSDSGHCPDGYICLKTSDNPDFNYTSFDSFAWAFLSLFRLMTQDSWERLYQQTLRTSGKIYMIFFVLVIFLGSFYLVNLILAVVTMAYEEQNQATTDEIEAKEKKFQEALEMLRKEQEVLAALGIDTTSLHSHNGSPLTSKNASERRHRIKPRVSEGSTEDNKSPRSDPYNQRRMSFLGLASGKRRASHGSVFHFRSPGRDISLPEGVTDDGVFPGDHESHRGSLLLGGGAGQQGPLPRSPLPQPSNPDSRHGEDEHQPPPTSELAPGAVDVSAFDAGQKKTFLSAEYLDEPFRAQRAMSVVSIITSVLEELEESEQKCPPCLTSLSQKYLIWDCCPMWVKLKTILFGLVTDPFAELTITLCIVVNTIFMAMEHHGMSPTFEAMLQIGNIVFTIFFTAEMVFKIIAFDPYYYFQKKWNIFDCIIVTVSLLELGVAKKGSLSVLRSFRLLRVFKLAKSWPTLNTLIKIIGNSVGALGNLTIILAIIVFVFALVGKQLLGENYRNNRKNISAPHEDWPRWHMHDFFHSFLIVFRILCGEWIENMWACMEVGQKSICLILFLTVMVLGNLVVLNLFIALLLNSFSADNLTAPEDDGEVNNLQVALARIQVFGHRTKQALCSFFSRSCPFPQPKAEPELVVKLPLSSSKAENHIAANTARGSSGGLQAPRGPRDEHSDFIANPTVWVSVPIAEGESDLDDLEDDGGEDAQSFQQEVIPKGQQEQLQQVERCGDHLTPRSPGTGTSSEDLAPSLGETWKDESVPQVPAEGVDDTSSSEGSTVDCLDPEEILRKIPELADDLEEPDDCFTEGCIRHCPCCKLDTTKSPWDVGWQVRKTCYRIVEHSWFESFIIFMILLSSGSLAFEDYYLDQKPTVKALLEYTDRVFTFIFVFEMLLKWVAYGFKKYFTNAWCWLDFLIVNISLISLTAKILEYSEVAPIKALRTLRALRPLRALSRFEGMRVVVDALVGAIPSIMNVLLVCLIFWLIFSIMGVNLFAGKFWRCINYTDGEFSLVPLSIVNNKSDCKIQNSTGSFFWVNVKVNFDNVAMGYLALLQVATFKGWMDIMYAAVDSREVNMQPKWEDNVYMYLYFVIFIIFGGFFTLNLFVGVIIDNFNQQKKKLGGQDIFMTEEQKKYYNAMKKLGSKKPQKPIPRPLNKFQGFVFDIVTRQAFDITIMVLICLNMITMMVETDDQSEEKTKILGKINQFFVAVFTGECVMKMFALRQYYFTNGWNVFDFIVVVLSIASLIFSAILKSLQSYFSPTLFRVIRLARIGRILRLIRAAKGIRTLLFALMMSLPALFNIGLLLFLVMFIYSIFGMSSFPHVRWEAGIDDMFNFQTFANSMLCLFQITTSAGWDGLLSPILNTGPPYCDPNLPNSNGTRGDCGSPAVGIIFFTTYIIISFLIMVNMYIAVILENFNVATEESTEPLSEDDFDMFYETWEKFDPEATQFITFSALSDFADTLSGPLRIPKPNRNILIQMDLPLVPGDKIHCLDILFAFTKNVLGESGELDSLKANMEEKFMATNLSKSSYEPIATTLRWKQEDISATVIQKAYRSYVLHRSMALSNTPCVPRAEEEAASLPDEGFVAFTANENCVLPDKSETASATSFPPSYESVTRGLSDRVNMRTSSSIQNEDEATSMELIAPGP

IC50 [1] [nM] | IC50 [2] [nM] | Structure (SMILES)
> 5000 | > 5000 | O=C1NCc2ccc(NC(=O)c3cc(C(F)(F)F)nnc3Oc3ccc(F)cc3Cl)cc21 [Compound 69]
501 to 1000 | 501 to 1000 | Cc1ccc(F)cc1Oc1nnc(C(F)(F)F)cc1C(=O)Nc1cccc(S(C)(=O)=O)c1 [Compound 70]
> 5000 | > 5000 | Cc1ccc(F)cc1Oc1nnc(C(F)(F)F)cc1C(=O)Nc1cc(S(C)(=O)=O)ccc1F [Compound 71]
≤ 200 | ≤ 200 | CS(=O)(=O)c1ccc(F)c(NC(=O)c2cc(C(F)(F)F)nnc2Oc2ccc(F)cc2Cl)c1 [Compound 72]
201 to 500 | 201 to 500 | CS(=O)(=O)c1cccc(NC(=O)c2cc(C(F)(F)F)nnc2Oc2cc(F)ccc2Cl)c1 [Compound 73]
501 to 1000 | ≤ 200 | CS(=O)(=O)c1ccc(F)c(NC(=O)c2cc(C(F)(F)F)nnc2Oc2cc(F)ccc2Cl)c1 [Compound 74]
≤ 200 | ≤ 200 | COc1cc(C#N)ccc1Oc1nnc(C(F)(F)F)cc1C(=O)Nc1cccc(S(C)(=O)=O)c1 [Compound 75]
≤ 200 | ≤ 200 | COc1cc(C#N)ccc1Oc1nnc(C(F)(F)F)cc1C(=O)Nc1cccc(C(N)=O)c1 [Compound 76]
201 to 500 | 201 to 500 | COc1cc(C#N)ccc1Oc1nnc(C(F)(F)F)cc1C(=O)Nc1cc(S(C)(=O)=O)ccc1F [Compound 77]
> 5000 | > 5000 | Cc1cc(C#N)ccc1Oc1nnc(C(F)(F)F)cc1C(=O)Nc1cccc(S(C)(=O)=O)c1 [Compound 78]
201 to 500 | 201 to 500 | Cc1cc(C#N)ccc1Oc1nnc(C(F)(F)F)cc1C(=O)Nc1cccc(C(N)=O)c1 [Compound 79]
501 to 1000 | 501 to 1000 | COc1ccc(F)cc1Oc1nnc(C(F)(F)F)cc1C(=O)Nc1cccc(C(N)=O)c1 [Compound 80]
1000 to 5000 | 201 to 500 | COc1ccc(F)cc1Oc1nnc(C(F)(F)F)cc1C(=O)Nc1cccc(S(C)(=O)=O)c1 [Compound 81]
≤ 200 | ≤ 200 | Cc1cc(Br)ccc1Oc1nnc(C(F)(F)F)cc1C(=O)Nc1cccc(S(C)(=O)=O)c1 [Compound 82]
≤ 200 | ≤ 200 | Cc1cc(Br)ccc1Oc1nnc(C(F)(F)F)cc1C(=O)Nc1ccc(C(N)=O)cc1 [Compound 83]
> 5000 | > 5000 | NC(=O)c1cncc(NC(=O)c2cc(C(F)(F)F)nnc2Oc2cc(F)ccc2Cl)c1 [Compound 84]

More lines, now with the values behind:

Structure (SMILES) | IC50 [1] [nM] | IC50 [2] [nM]
COc1cc(F)ccc1Oc1nnc(C(F)(F)F)cc1C(=O)Nc1cccc(S(N)(=O)=O)c1 [Compound 39] | ≤ 200 | ≤ 200
Cc1cc(F)ccc1Oc1nnc(C(F)(F)F)cc1C(=O)Nc1ccc(S(C)(=O)=O)cc1 [Compound 40] | > 5000 | 1000 to 5000
Cc1cc(F)ccc1Oc1nnc(C(F)(F)F)cc1C(=O)Nc1ccc(=O)[nH]c1 [Compound 41] | > 5000 | 1000 to 5000
Cc1cc(C(F)(F)F)ccc1Oc1nnc(C(F)(F)F)cc1C(=O)Nc1cccc(S(C)(=O)=O)c1 [Compound 42] | ≤ 200 | ≤ 200
COc1cc(F)ccc1Oc1nnc(C(F)(F)F)cc1C(=O)Nc1ccc2c(c1)S(=O)(=O)NC2=O [Compound 43] | 1000 to 5000 | 501 to 1000
CS(=O)(=O)c1cccc(NC(=O)c2cc(C(F)(F)F)nnc2Oc2cc(OC(F)(F)F)ccc2F)c1 [Compound 44] | 501 to 1000 | 201 to 500
COc1cc(F)ccc1Oc1nnc(C(F)(F)F)cc1C(=O)Nc1cccc(S2(=O)=NCCC2)c1 (stereo not drawn) [Compound 45] | 201 to 500 | 201 to 500
COC(=O)c1cncc(NC(=O)c2cc(C(F)(F)F)nnc2Oc2ccc(F)cc2OC)n1 [Compound 46] | > 5000 | > 5000
Cc1cc(OC(F)(F)F)ccc1Oc1nnc(C(F)(F)F)cc1C(=O)Nc1cccc(S(N)(=O)=O)c1 [Compound 47] | ≤ 200 | ≤ 200
Cc1cc(F)ccc1Oc1nnc(C(F)(F)F)cc1C(=O)Nc1ccc(S(N)(=O)=O)cc1 [Compound 48] | 1000 to 5000 | 501 to 1000
COc1cc(F)ccc1Oc1nnc(C(F)(F)F)cc1C(=O)Nc1cncc(S(N)(=O)=O)c1 [Compound 49] | ≤ 200 | ≤ 200
COc1cc(F)ccc1Oc1nnc(C(F)(F)F)cc1C(=O)Nc1ccnc(S(N)(=O)=O)c1 [Compound 50] | ≤ 200 | ≤ 200
Cc1cc(F)ccc1Oc1nnc(C(F)(F)F)cc1C(=O)Nc1cccc(S(N)(=O)=O)c1 [Compound 51] | ≤ 200 | ≤ 200
CS(=O)(=O)c1cccc(NC(=O)c2cc(C(F)(F)F)nnc2Oc2cccc(OC(F)(F)F)c2)c1 [Compound 52] | > 5000 | > 5000
COc1ccc(Oc2nnc(C(F)(F)F)cc2C(=O)Nc2cccc(S(C)(=O)=O)c2)c(C)c1 [Compound 53] | ≤ 200 | ≤ 200
COc1cc(F)ccc1Oc1nnc(C(F)(F)F)cc1C(=O)Nc1cccc(-n2cnnc2C)c1 [Compound 54] | 1000 to 5000 | 1000 to 5000
COc1cc(F)ccc1Oc1nnc(C(F)(F)F)cc1C(=O)Nc1cnnc(C#N)c1 [Compound 55] | 1000 to 5000 | 1000 to 5000
COc1cc(F)ccc1Oc1nnc(C(F)(F)F)cc1C(=O)Nc1cc(C#N)cnn1 [Compound 56] | > 5000 | > 5000
COc1cc(F)ccc1Oc1nnc(C(F)(F)F)cc1C(=O)Nc1cccc(N2CCOC2=O)c1 [Compound 57] | > 5000 | > 5000
Cc1cc(F)ccc1Oc1nnc(C(F)(F)F)cc1C(=O)Nc1ccnnc1 [Compound 59, 3-(4-Fluoro-2-methyl-phenoxy)-N-pyridazin-4-yl-6-(trifluoromethyl)pyridazine-4-carboxamide] | 201 to 500 | 501 to 1000
O=C(Nc1ccc[n+]([O-])c1)c1cc(C(F)(F)F)nnc1Oc1ccc(F)cc1F [Compound 60, 3-(3-(2,4-Difluorophenoxy)-6-(trifluoromethyl)pyridazine-4-carboxamido) pyridine 1-oxide] | 1000 to 5000 | 1000 to 5000
Cc1cc(F)ccc1Oc1nnc(C(F)(F)F)cc1C(=O)Nc1ccc[n+]([O-])c1 [Compound 61] | > 5000 | > 5000
O=C(Nc1ccc[n+]([O-])c1)c1cc(C(F)(F)F)nnc1Oc1ccc(F)cc1Cl [Compound 62] | > 5000 | > 5000
O=C(Nc1ccnnc1)c1cc(C(F)(F)F)nnc1Oc1ccc(F)cc1Cl [Compound 63] | 501 to 1000 | 201 to 500
CS(=O)(=O)c1cccc(NC(=O)c2cc(C(F)(F)F)nnc2Oc2ccc(F)cc2Cl)c1 [Compound 64] | ≤ 200 | ≤ 200
CS(=O)(=O)c1cc(NC(=O)c2cc(C(F)(F)F)nnc2Oc2ccc(F)cc2Cl)ccn1 [Compound 65] | 501 to 1000 | 501 to 1000
CS(=O)(=O)c1cncc(NC(=O)c2cc(C(F)(F)F)nnc2Oc2ccc(F)cc2Cl)c1 [Compound 66] | 1000 to 5000 | > 5000
COc1cc(NC(=O)c2cc(C(F)(F)F)nnc2Oc2ccc(F)cc2Cl)ccn1 [Compound 67] | > 5000 | > 5000
CS(=O)(=O)c1cccc(NC(=O)c2cc(C(F)(F)F)nnc2Oc2ccc(F)cc2Cl)n1 [Compound 68] | > 5000 | > 5000
